Data set [1] in a line: Stability of compounds in human blood plasma. The class given is in vitro ADME. A digest of the protocol:
(§1)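 Compounds at 5 μM final in rat, mouse or human plasma, incubated at 37 °C and sampled at 0, 6 and 24 h. Proteins precipitated with acetonitrile and the supernatant dried and reconstituted in 50% acetonitrile/0.1% TFA. PBS controls run for unstable compounds.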

Data set [2] in a line: Stability of compounds in mouse blood plasma. Type of data set: in vitro ADME. An outline of the steps: as §1
The target of data set [3] is Cathepsin D (EC 3.4.23.5 from bovine spleen) (Bos taurus, UniProt P80209).
In data set [4] the target is T1, Priess (DR4Dw4: DRA1*0101 DRB1*0401) cells (Homo sapiens, UniProt P01903+P01911, A100K/A169T/F76Y/I96L/K127E/L162R/M171V/N62H/P40V/Q125Y/R42H/S133A/S149N/S66Y/V115G/V209L/W38E).
T1 construct: MHC II Proteins Expressed on PRIESS and LG2 Cells; endogenous in cells; host or cells: Priess cells
Nature of the data set: Competitive binding to MHC II proteins expressed on Priess cells. Type of data set: cell-based. An outline of the steps:
(§2)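 LG2 or Priess cells incubated 4 h at 37° C, 6% CO2 in 1% FCS with 10-fold compound dilutions (series 16 nM-1615 μM) and biotinylated-detectable indicator peptide (16 μM solution added). Lysates captured 2 h at 4° C; bound peptide detected via europium-streptavidin time-resolved fluorescence (ex 340, em 613 nm).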

Data set [5] can be described thus: Stability of compounds in rat blood plasma. Type of data set: in vitro ADME. A digest of the protocol:
as §1

Data set [6] concerns the target T2, LG2 (DR1: DRA1*0101 DRB1*0101) cells (Homo sapiens, UniProt P01903+P01911, A100R/D57E/F55L/F60I/F76Y/I96L/L162R/M171V/P40L/Q125E/R42F/V115G/Y59C).
T2 construct: MHC II Proteins Expressed on PRIESS and LG2 Cells; endogenous in cells; host or cells: LG2 cells
The data set is described as follows: Competitive binding to MHC II proteins expressed on LG2 cells. Type of data set: cell-based. To be noted: Cell binding IC50 (uM) LG2 (0101), LG2 (0101). A digest of the protocol:
as §2

A word on the IC50: it is the concentration that gives 50% inhibition. A lower IC50 goes with greater potency.

SMILES strings stand for the structures. Numbered stars: 1 amine (or outer) side, 2 acyl side, 3 side chain; on linkers, the order of the positions; unused ones are H or OH. Square brackets hold non-standard residues; d marks the D form. Peptide text beside a SMILES is read from it. * marks the point of attachment. ξ: configuration not given here. Gly(1-amidinopiperidin-4-yl) = N=C(N)N1CCC([C@H](N)C(=O)O)CC1; X1 = CC(C)c1oc([C@H](CO)N[*:1])nc1C(=O)[*:2]; Pro(3R-Ph) = O=C(O)[C@H]1NCC[C@@H]1c1ccccc1; Tic = O=C(O)[C@@H]1Cc2ccccc2CN1; Cha = N[C@@H](CC1CCCCC1)C(=O)O; NMe(benzyl) = CN(Cc1ccccc1)*; ξDisc = O=C(O)C1NCc2ccccc21; Nle = CCCC[C@H](N)C(=O)O; X3 = OCCOCCN*

On to `CCCC[C@H](NC(=O)[C@@H]1Cc2ccccc2CN1C(=O)[C@@H](NC(=O)[C@H](CC1CCCCC1)NC(C)=O)C1CCN(C(=N)N)CC1)C(=O)NCCOCCO` [Compound P70, Ac-Cha-Gpg-Tic-Nle-N(H)CH2CH2OCH2CH2OH] (Ac-[Cha][Gly(1-amidinopiperidin-4-yl)][Tic][Nle]-X3), for which, in data set [1], the “Stability (Arbitrary units) Human 6 h” value is 116 Arbitrary units and the “Stability (Arbitrary units) Human 24 h” value was found to be 90 Arbitrary units. Further, in data set [2], the “Stability (Arbitrary units) Mouse 6 h” value amounted to 105 Arbitrary units and the “Stability (Arbitrary units) Mouse 24 h” value was 82 Arbitrary units. Moreover, the “Stability (Arbitrary units) Cath D 4 h” value in data set [3] was found to be 112 Arbitrary units. This compound gave an IC50 in data set [4] of 8.6 µM. In addition, in data set [5], the “Stability (Arbitrary units) Rat 6 h” value turned out to be 83 Arbitrary units and the “Stability (Arbitrary units) Rat 24 h” value is listed as 65 Arbitrary units. Besides, the IC50 in data set [6] is 5.7 µM.

For the compound `CCCC[C@H](NC(=O)C1c2ccccc2CN1C(=O)[C@H](CCCNC(=N)N)NC(=O)[C@H](CC1CCCCC1)NC(C)=O)C(=O)N(C)Cc1ccccc1` (stereo partly drawn) [Compound P72-1, Ac-Cha-Arg-Disc-Nle-N(Me)Bn] (Ac-[Cha]R[ξDisc][Nle]-{NMe(benzyl)}), in data set [1], the “Stability (Arbitrary units) Human 6 h” value is given as 99 Arbitrary units and the “Stability (Arbitrary units) Human 24 h” value is reported as 99 Arbitrary units. Besides, in data set [2], the “Stability (Arbitrary units) Mouse 6 h” value came out at 97 Arbitrary units and the “Stability (Arbitrary units) Mouse 24 h” value stood at 75 Arbitrary units. Also, the “Stability (Arbitrary units) Cath D 4 h” value in data set [3] is on record as 101 Arbitrary units. In data set [4], this compound registered a half-inhibitory concentration (IC50) of 7.5 µM. For the same compound, in data set [5], the “Stability (Arbitrary units) Rat 6 h” value was 80 Arbitrary units and the “Stability (Arbitrary units) Rat 24 h” value was determined as 67 Arbitrary units. In data set [6], this compound yielded an IC50 of 12 µM.

Turning to `CCCC[C@H](NC(=O)[C@@H]1Cc2ccccc2CN1C(=O)[C@@H](NC(=O)[C@H](CC1CCCCC1)NC(C)=O)C1CCN(C(=N)N)CC1)C(=O)N(C)Cc1ccccc1` [Compound P74, Ac-Cha-Gpg-Tic-Nle-N(Me)Bn] (Ac-[Cha][Gly(1-amidinopiperidin-4-yl)][Tic][Nle]-{NMe(benzyl)}), in data set [1], the “Stability (Arbitrary units) Human 6 h” value is 114 Arbitrary units and the “Stability (Arbitrary units) Human 24 h” value amounted to 125 Arbitrary units. Moreover, the “Stability (Arbitrary units) Mouse 24 h” value in data set [2] was determined as 97 Arbitrary units. For the same compound, the “Stability (Arbitrary units) Cath D 4 h” value in data set [3] amounted to 104 Arbitrary units. In data set [4], this compound yielded an IC50 of 9.2 µM. Moreover, in data set [4] (compared to the Arg-containing equivalent), the “binding to MHC class II protein expressed on the surface of Priess cells” value is given as “Improved binding”. In data set [5], the “Stability (Arbitrary units) Rat 6 h” value is 91 Arbitrary units and the “Stability (Arbitrary units) Rat 24 h” value turned out to be 71 Arbitrary units. The compound also displayed an IC50 in data set [6] of 6.1 µM.

As for `CCCC[C@H](NC(=O)C1c2ccccc2CN1C(=O)[C@@H](NC(=O)[C@H](CC1CCCCC1)NC(C)=O)C1CCN(C(=N)N)CC1)C(=O)N1CC[C@H](c2ccccc2)[C@H]1C(=O)N[C@@H](CO)c1nc(C(=O)N(C)C)c(C(C)C)o1` (stereo partly drawn) [Compound P81-1] (Ac-[Cha][Gly(1-amidinopiperidin-4-yl)][ξDisc][Nle][Pro(3R-Ph)][X1]-NMe2), in data set [1], the “Stability (Arbitrary units) Human 6 h” value worked out at 151 Arbitrary units and the “Stability (Arbitrary units) Human 24 h” value was found to be 162 Arbitrary units. In addition, in data set [2], the “Stability (Arbitrary units) Mouse 6 h” value stood at 87 Arbitrary units and the “Stability (Arbitrary units) Mouse 24 h” value is recorded as 84 Arbitrary units. For the same compound, the “Stability (Arbitrary units) Cath D 4 h” value in data set [3] worked out at 106 Arbitrary units. The 50% inhibitory concentration (IC50) in data set [4] amounted to 3.4 µM. Moreover, in data set [5], the “Stability (Arbitrary units) Rat 6 h” value was 151 Arbitrary units and the “Stability (Arbitrary units) Rat 24 h” value is recorded as 112 Arbitrary units. For the same compound, the IC50 in data set [6] was determined as 5 µM.

The values above are taken from US7629318B2, “Immunosuppressant compounds, methods and uses related thereto” (priority 2002, dated 2009).
